pIC50: −log10 of the molar value. Bounds are passed on as bounds.

The record followed here is US11827657B2, “Boron containing pyrazole compounds, compositions comprising them, methods and uses thereof” (BOEHRINGER INGELHEIM ANIMAL HEALTH USA INC., priority 2020, dated 2023).

JAK1, sequence (P23458 whole entry, species assumed): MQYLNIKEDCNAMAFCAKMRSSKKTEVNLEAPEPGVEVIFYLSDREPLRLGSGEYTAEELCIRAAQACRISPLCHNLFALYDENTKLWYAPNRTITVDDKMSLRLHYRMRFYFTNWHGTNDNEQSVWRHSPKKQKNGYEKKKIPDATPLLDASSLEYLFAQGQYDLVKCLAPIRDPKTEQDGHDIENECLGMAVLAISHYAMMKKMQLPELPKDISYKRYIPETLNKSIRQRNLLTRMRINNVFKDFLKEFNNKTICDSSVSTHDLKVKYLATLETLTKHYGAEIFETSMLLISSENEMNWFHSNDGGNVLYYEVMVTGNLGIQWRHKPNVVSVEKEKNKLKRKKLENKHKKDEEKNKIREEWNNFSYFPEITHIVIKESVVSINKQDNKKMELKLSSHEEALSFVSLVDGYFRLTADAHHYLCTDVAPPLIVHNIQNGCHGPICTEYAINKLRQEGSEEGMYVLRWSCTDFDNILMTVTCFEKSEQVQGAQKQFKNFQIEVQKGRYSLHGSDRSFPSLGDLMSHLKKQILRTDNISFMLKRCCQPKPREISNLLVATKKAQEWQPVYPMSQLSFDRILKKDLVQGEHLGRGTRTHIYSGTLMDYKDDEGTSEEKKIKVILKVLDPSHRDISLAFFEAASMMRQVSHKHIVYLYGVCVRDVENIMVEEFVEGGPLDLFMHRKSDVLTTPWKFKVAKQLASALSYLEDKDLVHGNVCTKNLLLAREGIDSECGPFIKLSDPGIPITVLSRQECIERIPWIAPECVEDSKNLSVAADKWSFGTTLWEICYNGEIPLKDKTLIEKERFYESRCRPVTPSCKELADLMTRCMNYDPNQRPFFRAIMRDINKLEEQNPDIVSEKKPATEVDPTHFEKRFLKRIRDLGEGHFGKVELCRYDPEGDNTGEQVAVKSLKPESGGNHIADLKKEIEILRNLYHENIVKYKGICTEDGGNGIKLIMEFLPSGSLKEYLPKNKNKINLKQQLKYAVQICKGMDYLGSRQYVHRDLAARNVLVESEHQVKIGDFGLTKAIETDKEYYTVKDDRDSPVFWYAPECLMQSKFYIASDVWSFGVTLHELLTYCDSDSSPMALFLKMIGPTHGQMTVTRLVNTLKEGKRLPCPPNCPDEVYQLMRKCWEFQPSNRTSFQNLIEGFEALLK

This assay addresses JAK1 (Homo sapiens, UniProt P23458). The assay can be described thus: Biochemical Kinase Assay (JAK), 33P-ATP filter-binding. The settings on record: Biochemical Kinase Inhibition Assay; potency level of IC50; read-out: JAK1 (range). As for the experimental part: Biochemical Kinase Assay Protocol (JAK) • Reagent: Base Reaction buffer; 20 mM Hepes (pH 7.5), 10 mM MgCl2, 1 mM EGTA, 0.02% Brij™ 35, 0.02 mg/ml BSA, 0.1 mM Na3VO4, 2 mM DTT, 1% DMSO, where required cofactors were added individually to each kinase reaction.
Reaction Procedure: • 1. Prepared indicated substrate in freshly prepared Base Reaction Buffer • 2. Delivered any required cofactors to the substrate solution above • 3. Delivered indicated kinase into the substrate solution and gently mix • 4. Delivered compounds in DMSO into the kinase reaction mixture by Acoustic technology (Echo550; nanoliter range), incubated for 20 minutes at room temperature • 5. Delivered 33P-ATP into the reaction mixture to initiate the reaction. • 6. Incubated kinase reaction for 2 hours at room temperature • 7. Reactions were spotted onto P81 ion exchange paper • 8. Detected kinase activity by filter-binding method.
Compounds according to the present invention were tested in the Biochemical Kinase Assay Protocol. The results are provided below in Table 1, wherein the potency levels A, B, and C in the columns labeled JAK1 (range) correspond to IC50 as follows: A<10 nM; B=10-50 nM and C>50 nM. The Example Number entries formatted ##a represent stereoisomer one and entries formatted ##b represent stereoisomer two.
On to `N#C[C@@H]1CCOC[C@H]1n1cc(C(N)=O)c(Nc2cc(F)c3c(c2)B(O)OC3)n1` (relative stereo) [Example 1, 1-[trans-4-cyanotetrahydro-2H-pyran-3-yl]-3-[(4-fluoro-1-hydroxy-3H-2,1-benzoxaborol-6-yl)amino]pyrazole-4-carboxamide], for which the pIC50 is 7.30 to 8.00.
`N#C[C@@H]1CCOC[C@H]1n1cc(C(N)=O)c(Nc2ccc3c(c2)OB(O)C=C3)n1` (relative stereo) [Example 2, 1-[trans-4-cyanotetrahydro-2H-pyran-3-yl]-3-[(2-hydroxy-1,2-benzoxaborinin-7-yl)amino]pyrazole-4-carboxamide]: the pIC50 is less than 7.30.
Consider `CC1=C(C)c2cc(Nc3nn([C@@H]4COCC[C@H]4C#N)cc3C(N)=O)ccc2OB1O` (relative stereo) [Example 4, 1-(trans-4-cyanotetrahydro-2H-pyran-3-yl)-3-((2-hydroxy-3,4-dimethyl-2H-benzo[e][1,2]oxaborinin-6-yl)amino)-1H-pyrazole-4-carboxamide], for which the pIC50 is more than 8.00.
Consider `CC1=Cc2cc(Nc3nn([C@@H]4COCC[C@H]4C#N)cc3C(N)=O)ccc2OB1O` (relative stereo) [Example 5, 1-(trans-4-cyanotetrahydro-2H-pyran-3-yl)-3-((2-hydroxy-3-methyl-2H-benzo[e][1,2]oxaborinin-6-yl)amino)-1H-pyrazole-4-carboxamide], for which the pIC50 was more than 8.00.
In the case of `N#C[C@@H]1CCOC[C@H]1n1cc(C(N)=O)c(Nc2ccc3c(c2)CCOB3O)n1` (relative stereo) [Example 7, 1-(trans-4-cyanotetrahydro-2H-pyran-3-yl)-3-((1-hydroxy-3,4-dihydro-1H-benzo[c][1,2]oxaborinin-6-yl)amino)-1H-pyrazole-4-carboxamide], the pIC50 is more than 8.00.
Next, `N#C[C@@H]1CCC[C@H]1n1cc(C(N)=O)c(Nc2ccc3c(c2)C=CB(O)O3)n1` (relative stereo) [Example 8, 1-(trans-2-cyanocyclopentyl)-3-[(2-hydroxy-1,2-benzoxaborinin-6-yl)amino]pyrazole-4-carboxamide]: more than 8.00; `N#C[C@@H]1CCCC[C@H]1n1cc(C(N)=O)c(Nc2ccc3c(c2)B(O)OC3)n1` (relative stereo) [Example 9, 1-(trans-2-cyanocyclohexyl)-3-[(1-hydroxy-3H-2,1-benzoxaborol-6-yl)amino]pyrazole-4-carboxamide]: more than 8.00.
With `N#C[C@@H]1CCC[C@H]1n1cc(C(N)=O)c(Nc2ccc3c(c2)B(O)OC3)n1` (relative stereo) [Example 10, 1-(trans-2-cyanocyclopentyl)-3-[(1-hydroxy-3H-2,1-benzoxaborol-6-yl)amino]pyrazole-4-carboxamide], the pIC50 was 7.30 to 8.00.
With `N#C[C@@H]1CCCC[C@H]1n1cc(C(N)=O)c(Nc2ccc3c(c2)COB3O)n1` (relative stereo) [Example 11, 1-(trans-2-cyanocyclohexyl)-3-((1-hydroxy-1,3-dihydrobenzo[c][1,2]oxaborol-5-yl)amino)-1H-pyrazole-4-carboxamide], the pIC50 is more than 8.00.
Next, `N#C[C@@H]1CCC[C@H]1n1cc(C(N)=O)c(Nc2ccc3c(c2)COB3O)n1` (relative stereo) [Example 12, 1-(trans-2-cyanocyclopentyl)-3-((1-hydroxy-1,3-dihydrobenzo[c][1,2]oxaborol-5-yl)amino)-1H-pyrazole-4-carboxamide]: more than 8.00; `CC1=Cc2cc(Nc3nn([C@@H]4CCC[C@H]4C#N)cc3C(N)=O)cc(F)c2OB1O` (relative stereo) [Example 15, 1-(trans-2-cyanocyclopentyl)-3-[(8-fluoro-2-hydroxy-3-methyl-1,2-benzoxaborinin-6-yl)amino]pyrazole-4-carboxamide]: more than 8.00; `N#C[C@@H]1CCCC[C@H]1n1cc(C(N)=O)c(Nc2ccc3c(c2)C=CB(O)O3)n1` (relative stereo) [Example 18, 1-(trans-2-cyanocyclohexyl)-3-[(2-hydroxy-1,2-benzoxaborinin-6-yl)amino]pyrazole-4-carboxamide]: more than 8.00.
As to `CC(C)(C)C1=Cc2cc(Nc3nn([C@@H]4COCC[C@H]4C#N)cc3C(N)=O)ccc2OB1O` (relative stereo) [Example 19, 3-[(3-tert-butyl-2-hydroxy-1,2-benzoxaborinin-6-yl)amino]-1-(trans-4-cyanotetrahydro-2H-pyran-3-yl)pyrazole-4-carboxamide], the pIC50 was more than 8.00.
For `CC(C)(C)C1=Cc2cc(Nc3nn([C@@H]4CCC[C@H]4C#N)cc3C(N)=O)ccc2OB1O` (relative stereo) [Example 20, 3-[(3-tert-butyl-2-hydroxy-1,2-benzoxaborinin-6-yl)amino]-1-(trans-2-cyanocyclopentyl)pyrazole-4-carboxamide], the pIC50 was 7.30 to 8.00.
With `CC(C)(C)C1=Cc2cc(Nc3nn([C@@H]4CCCC[C@H]4C#N)cc3C(N)=O)ccc2OB1O` (relative stereo) [Example 21, 3-[(3-tert-butyl-2-hydroxy-1,2-benzoxaborinin-6-yl)amino]-1-(trans-2-cyanocyclohexyl)pyrazole-4-carboxamide], the pIC50 is more than 8.00.
With `N#C[C@@H]1CCOC[C@H]1n1cc(C(N)=O)c(Nc2ccc3c(c2)C=C(CCO)B(O)O3)n1` (relative stereo) [Example 22, 1-[trans-4-cyanooxan-3-yl]-3-{[2-hydroxy-3-(2-hydroxyethyl)-2H-1,2-benzoxaborinin-6-yl]amino}-1H-pyrazole-4-carboxamide] the figure was more than 8.00.
Turning to `CC1=C(C)c2cc(Nc3nn([C@@H]4CCC[C@H]4C#N)cc3C(N)=O)cc(C)c2OB1O` (relative stereo) [Example 24, 1-(trans-2-cyanocyclopentyl)-3-[(2-hydroxy-3,4,8-trimethyl-1,2-benzoxaborinin-6-yl)amino]pyrazole-4-carboxamide], the pIC50 was 7.30 to 8.00.
Regarding `CC1=C(C)c2cc(Nc3nn([C@@H]4CCCC[C@H]4C#N)cc3C(N)=O)cc(C)c2OB1O` (relative stereo) [Example 25, 1-(trans-2-cyanocyclohexyl)-3-[(2-hydroxy-3,4,8-trimethyl-1,2-benzoxaborinin-6-yl)amino]pyrazole-4-carboxamide], the pIC50 was 7.30 to 8.00.
With `CC1=Cc2cc(Nc3nn([C@@H]4CCCC[C@H]4C#N)cc3C(N)=O)ccc2OB1O` (relative stereo) [Example 26, 1-[trans-2-cyanocyclohexyl]-3-[(2-hydroxy-3-methyl-1,2-benzoxaborinin-6-yl)amino]pyrazole-4-carboxamide] the figure was more than 8.00; with `N#C[C@@H]1CCOC[C@H]1n1cc(C(N)=O)c(Nc2cc3c(cc2F)OB(O)C=C3)n1` (relative stereo) [Example 29, 1-(trans-4-cyanotetrahydro-2H-pyran-3-yl)-3-[(7-fluoro-2-hydroxy-1,2-benzoxaborinin-6-yl)amino]pyrazole-4-carboxamide], 7.30 to 8.00.
Consider `Cc1cc(Nc2nn([C@@H]3CCC[C@H]3C#N)cc2C(N)=O)cc2c1OB(O)C=C2` (relative stereo) [Example 31, 1-(trans-2-cyanocyclopentyl)-3-[(2-hydroxy-8-methyl-1,2-benzoxaborinin-6-yl)amino]pyrazole-4-carboxamide], for which the pIC50 was more than 8.00.
For `CC1=Cc2cc(Nc3nn([C@@H]4COCC[C@H]4C#N)cc3C(N)=O)cc(C)c2OB1O` (relative stereo) [Example 32, 1-[trans-4-cyanotetrahydro-2H-pyran-3-yl]-3-[(2-hydroxy-3,8-dimethyl-1,2-benzoxaborinin-6-yl)amino]pyrazole-4-carboxamide], the pIC50 is more than 8.00.
Next, `CCC1=CB(O)Oc2ccc(Nc3nn([C@@H]4COCC[C@H]4C#N)cc3C(N)=O)cc21` (relative stereo) [Example 33, 1-(trans-4-cyanotetrahydro-2H-pyran-3-yl)-3-[(4-ethyl-2-hydroxy-1,2-benzoxaborinin-6-yl)amino]pyrazole-4-carboxamide]: more than 8.00; `CC(C)C1=CB(O)Oc2ccc(Nc3nn([C@@H]4CCCC[C@H]4C#N)cc3C(N)=O)cc21` (relative stereo) [Example 34, 1-(trans-2-cyanocyclohexyl)-3-[(2-hydroxy-4-isopropyl-1,2-benzoxaborinin-6-yl)amino]pyrazole-4-carboxamide]: 7.30 to 8.00; `CC(C)C1=CB(O)Oc2ccc(Nc3nn([C@@H]4CCC[C@H]4C#N)cc3C(N)=O)cc21` (relative stereo) [Example 35, 1-(trans-2-cyanocyclopentyl)-3-[(2-hydroxy-4-isopropyl-1,2-benzoxaborinin-6-yl)amino]pyrazole-4-carboxamide]: 7.30 to 8.00.
Turning to `CCC1=C(CC)c2cc(Nc3nn([C@@H]4COCC[C@H]4C#N)cc3C(N)=O)ccc2OB1O` (relative stereo) [Example 39, 1-(trans-4-cyanotetrahydro-2H-pyran-3-yl)-3-[(3,4-diethyl-2-hydroxy-1,2-benzoxaborinin-6-yl)amino]pyrazole-4-carboxamide], the pIC50 was more than 8.00.
For `CCC1=C(CC)c2cc(Nc3nn([C@@H]4CCC[C@H]4C#N)cc3C(N)=O)ccc2OB1O` (relative stereo) [Example 40, 1-(trans-2-cyanocyclopentyl)-3-[(3,4-diethyl-2-hydroxy-1,2-benzoxaborinin-6-yl)amino]pyrazole-4-carboxamide], the pIC50 is 7.30 to 8.00.
